How the values were obtained:
mouse myocytes (C2C12) = assay: Glucose oxidase assay of glucose uptake capability of myocytes; type: cell-based; conditions: C2C12 cells, 0.1, 1 or 10 μg/ml, 2 hours; for relative glucose uptake capability of cells (glucose consumption) compared to the control group: BSA-DMEM medium containing 500 μg/ml glucose
Method: The differentiated mouse myocytes (C2C12, purchased from ATCC) and adipocytes (3T3-L1, purchased from ATCC) were cultivated in a Dulbecco's modified Eagle's medium (DMEM) containing 2% bovine serum albumin (BSA) but serum free for 16 hours respectively. Then, the cells were washed with Dulbecco's phosphate-buffered saline (D-PBS), and medium was replaced with a 0.2% BSA-DMEM medium containing 500 μg/ml glucose. The cells thus provided were used in the following experiments. C2C12 cells provided by [Preparation Examples] were divided into 5 groups and were respectively cultivated with the following mediums for 2 hours: • 1. Group I: a BSA-DMEM medium containing 500 μg/ml glucose. • 2. Group II: a BSA-DMEM medium containing 500 μg/ml glucose and 100 nM insulin. • 3. Group III: a BSA-DMEM medium containing 500 μg/ml glucose and 0.1 μg/ml Poria cocos epidermis extract provided by [Preparation Example A-2]. • 4. Group IV: a BSA-DMEM medium containing 500 μg/ml glucose and 1 μg/ml Poria cocos epidermis extract provided by [Preparation Example A-2]. • 5. Group V: a BSA-DMEM medium containing 500 μg/ml glucose and 10 μg/ml Poria cocos epidermis extract provided by [Preparation Example A-2]. Thereafter, the content of glucose in the medium of each group was determined by a glucose oxidase assay to measure the level of glucose consumption (representing the glucose uptake capability of cells) of each group. Finally, the results of the control group (i.e., cells being cultivated with the medium of Group I) was served as a basis to calculate the relative glucose uptake capabilities of other groups. C2C12 cells provided by [Preparation Examples] were divided into 8 groups and were respectively cultivated with the following mediums for 2 hours: • 1. Group i: a BSA-DMEM medium containing 500 μg/ml glucose. • 2. […] Then, the content of glucose in the medium of each group was determined by a glucose oxidase assay to measure the level of glucose consumption of each group (representing the glucose uptake capability of cells). […]

[1] = tested on: mouse adipocytes (3T3-L1); assay: Glucose oxidase assay of glucose uptake capability of adipocytes; type: cell-based; conditions: 2 hours; for relative glucose uptake capability of cells (glucose consumption) compared to the control group: 3T3-L1 cells, 0.1, 1 or 10 μg/ml, BSA-DMEM medium containing 500 μg/ml glucose
Method: The differentiated mouse myocytes (C2C12, purchased from ATCC) and adipocytes (3T3-L1, purchased from ATCC) were cultivated in a Dulbecco's modified Eagle's medium (DMEM) containing 2% bovine serum albumin (BSA) but serum free for 16 hours respectively. Then, the cells were washed with Dulbecco's phosphate-buffered saline (D-PBS), and medium was replaced with a 0.2% BSA-DMEM medium containing 500 μg/ml glucose. The cells thus provided were used in the following experiments. 3T3-L1 cells provided by [Preparation Examples] were divided into 5 groups and were respectively cultivated with the mediums of Groups I to V described in Example 1 (1-1) for 2 hours. Then, the content of glucose in the medium of each group were determined by a glucose oxidase assay to measure the level of glucose consumption of each group (representing the glucose uptake capability of cells). Finally, the results of the control group (i.e., cells being cultivated with the medium of Group I) was served as a basis to calculate the relative glucose uptake capabilities of other groups. 3T3-L1 cells provided by [Preparation Examples] were divided into 8 groups and were respectively cultivated with the mediums of Groups i to v as described in Example 2 (2-1) for 2 hours. Then, the content of glucose in the medium of each group was determined by a glucose oxidase assay to measure the level of glucose consumption of each group (representing the glucose uptake capability of cells). Finally, the results of the control group (i.e., cells being cultivated with the medium of Group i) was served as a basis to calculate the relative glucose uptake capabilities of other groups. FIG. 4A comprises the results of the control group, the positive control group (i.e., cells being cultivated with the medium of Group ii), and the groups being treated with poricoic acid A (i.e., cells being cultivated with the medium of Group iii, iv or v which contains poricoic acid A). FIG. 4B comprises the results of the control group, the positive control group, and the group being treated with poricoic acid B (i.e., cells being cultivated with the medium of Group iii, iv or v which contains poricoic acid B).

increment in glucose uptake capability compared to the control group, medium dosage group ([1]; 3T3-L1 cells, 1 μg/ml) | increment in glucose uptake capability compared to the control group, high dosage group ([1]; 3T3-L1 cells, 10 μg/ml) | Compound | relative glucose uptake capability of cells (glucose consumption) compared to the control group (mouse myocytes (C2C12)) | glucose uptake capability compared to the positive control group (mouse myocytes (C2C12); positive control 100 nM insulin) | relative glucose uptake capability of cells (glucose consumption) compared to the control group [1]
significant | significant | C=C(CC[C@@H](C(=O)O)[C@H]1[C@H](O)C[C@@]2(C)C3=CC[C@@H](C(=C)C)[C@](C)(CCC(=O)O)C3=CC[C@]12C)C(C)C [poricoic acid A, Poricoic acid A] | significantly increased | equivalent to that of the positive control group | exhibited an increment in the glucose uptake capabilities
– | – | C=C(C)[C@@H]1CC=C2C(=CC[C@]3(C)[C@@H]([C@@H](CCC=C(C)C)C(=O)O)[C@H](O)C[C@@]23C)[C@@]1(C)CCC(=O)O [poricoic acid B, Poricoic acid B] | significantly increased | – | significantly increased
